Test results from the supplement of paper PMC10307832.

Key:
[1] = compound: Cc1ccc2nc(NCCN)c3ncc(C)n3c2c1 + COc1cc2c(Oc3ccc(NC(=O)C4(C(=O)Nc5ccc(F)cc5)CC4)cc3F)ccnc2cc1OCCCN1CCOCC1 [Foretinib] (partner 0.25 µM); assay: relative viability (nuclei count vs DMSO), 5 days (fraction); higher = more cells survive
Procedure, shortened: (§1)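 Five library-drug doses in √10 steps were combined with a fixed anchor-drug dose, or a single drug was given alone, by pin tool to lung cancer cell lines in 1536-well plates the day after seeding. Nuclei were stained and counted after 5 days. Relative viability is the nuclei count in treated wells over that in vehicle wells, taken as the median of duplicate plates.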

Salubrinal + Tozasertib = compound: O=C(/C=C/c1ccccc1)NC(NC(=S)Nc1cccc2cccnc12)C(Cl)(Cl)Cl [Salubrinal] + Cc1cc(Nc2cc(N3CCN(C)CC3)nc(Sc3ccc(NC(=O)C4CC4)cc3)n2)n[nH]1 [Tozasertib] (partner 0.1 µM); assay: as above
Procedure, shortened: as §1

Cell Line	relative viability ([1]; first compound 0.04 µM)	relative viability ([1]; first compound 0.1265 µM)	relative viability ([1]; first compound 0.4 µM)	relative viability ([1]; first compound 1.265 µM)	relative viability ([1]; first compound 4 µM)	relative viability (Salubrinal + Tozasertib; first compound 0.08 µM)	relative viability (Salubrinal + Tozasertib; first compound 0.253 µM)	relative viability (Salubrinal + Tozasertib; first compound 0.8 µM)	relative viability (Salubrinal + Tozasertib; first compound 2.53 µM)	relative viability (Salubrinal + Tozasertib; first compound 8 µM)
NCI-H1975	0.992	0.981	0.895	0.947	0.882	0.989	0.621	0.785	0.517	0.186
CAL-12T	1.14	0.967	1.13	1.14	0.97	0.32	0.279	0.323	0.241	0.241
NCI-H2342	1.24	1.06	0.987	1.05	1.14	0.457	0.503	0.527	0.583	0.533
HCC-44	–	–	–	–	–	1.24	0.916	1.08	0.74	0.708
EKVX	0.987	1.04	0.866	0.822	0.777	0.437	0.387	0.536	0.382	0.321
NCI-H1651	0.682	0.744	0.825	0.727	0.759	0.711	0.639	0.776	0.608	0.734
NCI-H1648	–	–	–	–	–	0.466	0.586	0.334	0.501	0.247
NCI-H1703	0.307	0.316	0.322	0.368	0.327	–	–	–	–	–
Calu-6	0.855	0.841	0.815	0.833	0.811	–	–	–	–	–
EBC-1	0.0984	0.102	0.098	0.0921	0.0989	–	–	–	–	–
SW 1573	1.02	0.966	1.09	0.945	0.859	0.176	0.172	0.155	0.194	0.151
A-427	1.09	1.03	0.962	1	0.948	0.22	0.226	0.227	0.227	0.21
NCI-H2347	1.2	0.741	1.02	0.869	0.792	0.619	0.543	0.617	0.51	0.568
NCI-H1355	1.03	0.943	0.901	0.977	0.978	0.697	0.519	0.524	0.498	0.477
NCI-H1944	0.896	0.862	0.773	0.9	0.958	0.269	0.269	0.276	0.229	0.278
PC-3 [JPC-3]	1.1	1.04	0.934	0.986	1.09	1.12	0.649	0.857	0.896	0.831
NCI-H2228	0.896	0.764	0.829	0.798	0.749	0.268	0.304	0.283	0.222	0.197
HOP-62	1.05	1.07	1.1	1.13	1.02	0.334	0.378	0.409	0.347	0.334

Cell Line	relative viability ([1]; first compound 0.04 µM)	relative viability ([1]; first compound 0.1265 µM)	relative viability ([1]; first compound 0.4 µM)	relative viability ([1]; first compound 1.265 µM)	relative viability ([1]; first compound 4 µM)	relative viability (Salubrinal + Tozasertib; first compound 0.08 µM)	relative viability (Salubrinal + Tozasertib; first compound 0.253 µM)	relative viability (Salubrinal + Tozasertib; first compound 0.8 µM)	relative viability (Salubrinal + Tozasertib; first compound 2.53 µM)	relative viability (Salubrinal + Tozasertib; first compound 8 µM)
HARA	0.783	0.829	0.903	0.956	0.861	0.122	0.108	0.111	0.0979	0.106
NCI-H838	1.16	1.08	1.04	1.02	0.982	0.292	0.246	0.291	0.25	0.259
NCI-H1755	0.936	0.84	0.919	0.928	0.876	0.573	0.61	0.611	0.457	0.507
HCC-78	0.579	0.584	0.493	0.626	0.558	0.372	0.343	0.345	0.351	0.314
IA-LM	1.19	1.25	1.07	1.16	0.928	–	–	–	–	–
NCI-H322M	0.995	0.874	0.969	1.04	1.15	0.511	0.445	0.479	0.44	0.469
NCI-H3122	0.928	0.981	0.924	1.07	0.875	0.416	0.387	0.591	0.387	0.428
COR-L23	0.966	0.915	0.938	1.01	0.865	0.191	0.185	0.194	0.168	0.145
NCI-H2087	1.13	1.08	1.11	1.05	1.09	0.299	0.212	0.295	0.229	0.195
LC-2-ad	0.96	0.879	0.876	0.984	0.868	0.45	0.449	0.478	0.408	0.354
NCI-H1915	1.11	1.06	–	1.12	1.03	0.484	0.291	0.337	0.387	0.432
NCI-H1623	0.945	0.94	0.897	0.761	0.79	0.431	0.434	0.445	0.396	0.412
NCI-H2023	0.932	0.522	1.01	0.803	0.708	0.323	0.286	0.323	0.236	0.182
COR-L 105	1.18	0.995	0.86	0.987	1.15	0.665	0.37	0.312	0.335	0.328
RERF-LC-KJ	0.911	0.845	0.851	0.796	0.828	0.584	0.433	0.513	0.435	0.285
LXF-289	0.95	1	0.955	0.992	0.958	0.183	0.18	0.216	0.194	0.201
PC-14	0.944	0.908	0.984	0.933	0.943	0.629	0.663	0.638	0.525	0.601
